Test results taken from ChEMBL document CHEMBL3044536, “The synthesis, anti-inflammatory, and anti-microbial activity evaluation of new series of 4-(3-arylureido)phenyl-1,4-dihydropyridine urea derivatives” (2013).
In brackets after ≈: the same amount, converted by molar mass. Activity calls are given as the source filed them. The calls are words filed in the database; no cut-off is given here.

Assays:
Fusarium solani [1] = test: Antifungal activity against Fusarium solani; assay type: functional
Aspergillus flavus [2] = test: Antifungal activity against Aspergillus flavus; assay type: functional
Aspergillus niger [3] = test: Antifungal activity against Aspergillus niger; assay type: functional
Candida albicans [4] = test: Antifungal activity against Candida albicans; assay type: functional
THP-1 [5] = test: Anti-inflammatory activity in Homo sapiens (human) THP1 cells assessed as inhibition of LPS-induced TNFalpha production at 1 uM incubated for 30 min prior to LPS-challenge measured after 24 hr by ELISA; assay type: functional
THP-1 [6] = test: Anti-inflammatory activity in Homo sapiens (human) THP1 cells assessed as inhibition of LPS-induced IL6 production at 1 uM incubated for 30 min prior to LPS-challenge measured after 24 hr by ELISA; assay type: functional
Staphylococcus aureus [7] = test: Antibacterial activity against Staphylococcus aureus; assay type: functional
Escherichia coli [8] = test: Antibacterial activity against Escherichia coli; assay type: functional
Bacillus subtilis [9] = test: Antibacterial activity against Bacillus subtilis; assay type: functional
Salmonella typhimurium [10] = test: Antibacterial activity against Salmonella enterica subsp. enterica serovar Typhimurium; assay type: functional
Bacillus subtilis [11] = test: Antibacterial activity against Bacillus subtilis up to 200 ug/ml; assay type: functional, organism-based
THP-1 [12] = test: Anti-inflammatory activity in Homo sapiens (human) THP1 cells assessed as inhibition of LPS-induced TNFalpha production at 10 uM incubated for 30 min prior to LPS-challenge measured after 24 hr by ELISA; assay type: functional
THP-1 [13] = test: Anti-inflammatory activity in Homo sapiens (human) THP1 cells assessed as inhibition of LPS-induced IL6 production at 10 uM incubated for 30 min prior to LPS-challenge measured after 24 hr by ELISA; assay type: functional
Fusarium solani [14] = test: Antifungal activity against Fusarium solani up to 200 ug/ml; assay type: functional, organism-based
Staphylococcus aureus [15] = test: Antibacterial activity against Staphylococcus aureus up to 200 ug/ml; assay type: functional, organism-based
Aspergillus flavus [16] = test: Antifungal activity against Aspergillus flavus up to 200 ug/ml; assay type: functional, organism-based
Candida albicans [17] = test: Antifungal activity against Candida albicans relative to miconazole; assay type: functional
Aspergillus flavus [18] = test: Antifungal activity against Aspergillus flavus relative to miconazole; assay type: functional
Aspergillus niger [19] = test: Antifungal activity against Aspergillus niger relative to miconazole; assay type: functional
Fusarium solani [20] = test: Antifungal activity against Fusarium solani relative to miconazole; assay type: functional
Bacillus subtilis [21] = test: Ratio of ciprofloxacin MIC to compound MIC for Bacillus subtilis; assay type: functional
Staphylococcus aureus [22] = test: Ratio of ciprofloxacin MIC to compound MIC for Staphylococcus aureus; assay type: functional
Salmonella typhimurium [23] = test: Ratio of ciprofloxacin MIC to compound MIC for Salmonella enterica subsp. enterica serovar Typhimurium; assay type: functional
Escherichia coli [24] = test: Ratio of ciprofloxacin MIC to compound MIC for Escherichia coli; assay type: functional
Aspergillus niger [25] = test: Antifungal activity against Aspergillus niger up to 200 ug/ml; assay type: functional, organism-based
Candida albicans [26] = test: Antifungal activity against Candida albicans up to 200 ug/ml; assay type: functional, organism-based

| SMILES | MIC (Fusarium solani [1]) | MIC (Aspergillus flavus [2]) | MIC (Aspergillus niger [3]) | MIC (Candida albicans [4]) | MIC (Staphylococcus aureus [7]) | MIC (Escherichia coli [8]) | MIC (Bacillus subtilis [9]) | MIC (Salmonella typhimurium [10]) | inhibition at 10 µM (THP-1 [12]) | inhibition at 10 µM (THP-1 [13]) | other results |
| --- | --- | --- | --- | --- | --- | --- | --- | --- | --- | --- | --- |
| Clc1ccc(COC(Cn2ccnc2)c2ccc(Cl)cc2Cl)c(Cl)c1 (stereo unspecified) [MICONAZOLE] | 15 µg/mL (≈ 36 µM) | 20 µg/mL (≈ 48.1 µM) | 20 µg/mL (≈ 48.1 µM) | 25 µg/mL (≈ 60.1 µM) |  |  |  |  |  |  |  |
| C[C@@H]1C[C@H]2[C@@H]3CCC4=CC(=O)C=C[C@]4(C)[C@@]3(F)[C@@H](O)C[C@]2(C)[C@@]1(O)C(=O)CO [DEXAMETHASONE] |  |  |  |  |  |  |  |  |  |  | inhibition at 1 µM (THP-1 [5]): 71%; inhibition at 1 µM (THP-1 [6]): 80% |
| O=C(O)c1cn(C2CC2)c2cc(N3CCNCC3)c(F)cc2c1=O [CIPROFLOXACIN] |  |  |  |  | 20 µg/mL (≈ 60.4 µM) | 20 µg/mL (≈ 60.4 µM) | 25 µg/mL (≈ 75.4 µM) | 25 µg/mL (≈ 75.4 µM) |  |  |  |
| CCOC(=O)C1=C(C)NC(C)=C(C(=O)OCC)C1c1ccc(NC(=O)Nc2cc(C(F)(F)F)ccc2Cl)cc1 | 90 µg/mL (≈ 159 µM) | 90 µg/mL (≈ 159 µM) | 45 µg/mL (≈ 79.5 µM) | 65 µg/mL (≈ 115 µM) | 80 µg/mL (≈ 141 µM) | 65 µg/mL (≈ 115 µM) |  | 90 µg/mL (≈ 159 µM) | 0% | 12% | Activity (Bacillus subtilis [11]): inactive |
| CCOC(=O)C1=C(C)NC(C)=C(C(=O)OCC)C1c1ccc(NC(=O)Nc2cc(F)ccc2F)cc1 |  |  | 90 µg/mL (≈ 180 µM) | 85 µg/mL (≈ 170 µM) |  | 70 µg/mL (≈ 140 µM) |  | 90 µg/mL (≈ 180 µM) | 78% | 96% | Activity (Fusarium solani [14]): inactive; Activity (Staphylococcus aureus [15]): inactive; Activity (Bacillus subtilis [11]): inactive; Activity (Aspergillus flavus [16]): inactive |
| CCOC(=O)C1=C(C)NC(C)=C(C(=O)OCC)C1c1ccc(NC(=O)Nc2ccc(Cl)cc2Cl)cc1 | 25 µg/mL (≈ 47 µM) | 20 µg/mL (≈ 37.6 µM) | 10 µg/mL (≈ 18.8 µM) | 15 µg/mL (≈ 28.2 µM) | 20 µg/mL (≈ 37.6 µM) | 10 µg/mL (≈ 18.8 µM) | 35 µg/mL (≈ 65.7 µM) | 20 µg/mL (≈ 37.6 µM) | 11% | 24% |  |
| CCOC(=O)C1=C(C)NC(C)=C(C(=O)OCC)C1c1ccc(NC(=O)Nc2ccc(Cl)cc2C(F)(F)F)cc1 | 60 µg/mL (≈ 106 µM) | 80 µg/mL (≈ 141 µM) | 85 µg/mL (≈ 150 µM) | 50 µg/mL (≈ 88.3 µM) | 55 µg/mL (≈ 97.2 µM) | 45 µg/mL (≈ 79.5 µM) | 70 µg/mL (≈ 124 µM) | 60 µg/mL (≈ 106 µM) | 83% | 91% |  |
| CCOC(=O)C1=C(C)NC(C)=C(C(=O)OCC)C1c1ccc(NC(=O)Nc2cc(Cl)ccc2Cl)cc1 | 10 µg/mL (≈ 18.8 µM) | 20 µg/mL (≈ 37.6 µM) | 30 µg/mL (≈ 56.3 µM) | 10 µg/mL (≈ 18.8 µM) | 15 µg/mL (≈ 28.2 µM) | 15 µg/mL (≈ 28.2 µM) | 25 µg/mL (≈ 47 µM) | 15 µg/mL (≈ 28.2 µM) | 36% | 51% | Activity (Candida albicans [17]): >50%; Activity (Aspergillus flavus [18]): >50%; Activity (Aspergillus niger [19]): >50%; Activity (Fusarium solani [20]): >50% |
| CCOC(=O)C1=C(C)NC(C)=C(C(=O)OCC)C1c1ccc(NC(=O)Nc2ccc(C(F)(F)F)cc2)cc1 | 90 µg/mL (≈ 169 µM) | 70 µg/mL (≈ 132 µM) | 55 µg/mL (≈ 103 µM) | 45 µg/mL (≈ 84.7 µM) | 60 µg/mL (≈ 113 µM) | 90 µg/mL (≈ 169 µM) | 85 µg/mL (≈ 160 µM) | 90 µg/mL (≈ 169 µM) | 74% | 86% |  |
| CCOC(=O)C1=C(C)NC(C)=C(C(=O)OCC)C1c1ccc(NC(=O)Nc2ccc(F)cc2F)cc1 | 20 µg/mL (≈ 40 µM) | 35 µg/mL (≈ 70.1 µM) | 20 µg/mL (≈ 40 µM) | 35 µg/mL (≈ 70.1 µM) | 45 µg/mL (≈ 90.1 µM) | 25 µg/mL (≈ 50 µM) | 50 µg/mL (≈ 100 µM) | 25 µg/mL (≈ 50 µM) | 28% | 54% | Ratio (Bacillus subtilis [21]): 2; Ratio (Staphylococcus aureus [22]): 2; Ratio (Salmonella typhimurium [23]): 2; Ratio (Escherichia coli [24]): 2 |
| CCOC(=O)C1=C(C)NC(C)=C(C(=O)OCC)C1c1ccc([N+](=O)[O-])cc1 | 90 µg/mL (≈ 240 µM) |  |  |  | 90 µg/mL (≈ 240 µM) | 90 µg/mL (≈ 240 µM) |  | 90 µg/mL (≈ 240 µM) | 0% | 0% | Activity (Aspergillus niger [25]): inactive; Activity (Candida albicans [26]): inactive; Activity (Bacillus subtilis [11]): inactive; Activity (Aspergillus flavus [16]): inactive |
| CCOC(=O)C1=C(C)NC(C)=C(C(=O)OCC)C1c1ccc(N)cc1 | 90 µg/mL (≈ 261 µM) | 90 µg/mL (≈ 261 µM) |  | 90 µg/mL (≈ 261 µM) | 60 µg/mL (≈ 174 µM) | 40 µg/mL (≈ 116 µM) | 85 µg/mL (≈ 247 µM) | 45 µg/mL (≈ 131 µM) | 0% | 0% | Activity (Aspergillus niger [25]): inactive |
| CCOC(=O)C1=C(C)NC(C)=C(C(=O)OCC)C1c1ccc(NC(=O)Nc2ccc(F)cc2)cc1 | 85 µg/mL (≈ 177 µM) | 85 µg/mL (≈ 177 µM) | 45 µg/mL (≈ 93.5 µM) | 65 µg/mL (≈ 135 µM) | 40 µg/mL (≈ 83.1 µM) | 65 µg/mL (≈ 135 µM) | 80 µg/mL (≈ 166 µM) | 65 µg/mL (≈ 135 µM) | 42% | 68% |  |
| CCOC(=O)C1=C(C)NC(C)=C(C(=O)OCC)C1c1ccc(NC(=O)Nc2ccc(Cl)cc2)cc1 | 20 µg/mL (≈ 40.2 µM) | 20 µg/mL (≈ 40.2 µM) | 20 µg/mL (≈ 40.2 µM) | 30 µg/mL (≈ 60.2 µM) | 65 µg/mL (≈ 131 µM) | 20 µg/mL (≈ 40.2 µM) | 80 µg/mL (≈ 161 µM) | 35 µg/mL (≈ 70.3 µM) | 0% | 18% |  |
| CCOC(=O)C1=C(C)NC(C)=C(C(=O)OCC)C1c1ccc(NC(=O)Nc2ccc(C#N)cc2)cc1 | 25 µg/mL (≈ 51.2 µM) | 20 µg/mL (≈ 40.9 µM) | 10 µg/mL (≈ 20.5 µM) | 20 µg/mL (≈ 40.9 µM) | 10 µg/mL (≈ 20.5 µM) | 15 µg/mL (≈ 30.7 µM) | 10 µg/mL (≈ 20.5 µM) | 10 µg/mL (≈ 20.5 µM) | 0% | 8% | Activity (Candida albicans [17]): >50%; Ratio (Bacillus subtilis [21]): 2; Activity (Aspergillus flavus [18]): >50%; Activity (Aspergillus niger [19]): >50%; Activity (Fusarium solani [20]): >50%; Ratio (Staphylococcus aureus [22]): 2; Ratio (Salmonella typhimurium [23]): 2; Ratio (Escherichia coli [24]): 2 |
